{
  "source": "patent US20170320939A1",
  "about": "“COLL2-1 PEPTIDE AND ITS NITRATED FORM AS THERAPEUTIC TARGETS FOR OSTEOARTHRITIS TREATMENT” (Université de Liège, priority 2014, published 2017)",
  "key": {"[1]": {"test_system": "OA synovial fibroblast cells", "assay": "Intracellular GSH assay in OA synovial fibroblast cells", "assay_type": "cell-based, human", "conditions": "Coll2-1 at 0.45 and 4.5 nmol, 24 hours", "procedure": "(§1) 1.1 Patients. Synovial tissue samples were obtained from 10 patients (8 women, 2 man; mean age 70 +/−6 years) with osteoarthritis (OA) of the knee at the time of total knee joint replacement surgery. All the subjects provided their informed consent.\n(§2) 1.2 Isolation and culture of synovial cells. Synovium biopsies were digested is with collagenase from Clostridium histolyticum, Type IA (1 mg/ml) (Sigma-Aldrich, Saint-Louis, USA) and 0.25% trypsin (Sigma Aldrich, Saint Louis, USA) with 0.68 mM EDTA in Tris buffer 0.1M, pH 7.4 in complete medium (CM) (DMEM (Dulbecco's Modified Eagle's Medium) Low Glucose supplemented with 10 mM HEPES, 100 U/ml penicillin, 100 μg/ml streptomycin, 2 mM glutamine and 10% fetal calf serum (Lonza, Verviers, Belgium)) for 1 hour at 37° C. The cells suspensions were passed through a 70-μm filter to remove any undigested tissue. The filtered cells suspensions were then collected by centrifugation at 800 g and were cultured in culture flasks. After 24 hours, medium was changed to eliminate non adherent cells. Synovial fibroblasts cells (SFC) were used after three passages. […]\n1.6 GSH assay. Levels of intracellular GSH were assessed by monoclorobimane staining. […] The fluorescence intensities were measured at […] using excitation and emission wavelengths of 380 and 485 nm, respectively. The intracellular GSH level was expressed as arbitrary units of fluorescence intensity."}, "[2]": {"test_system": "OA synovial fibroblast cells", "assay": "NO production in OA synovial fibroblast cells", "assay_type": "cell-based, human", "conditions": "Coll2-1 (0.45 and 4.5 nmol) or Coll2-1NO2 (4 and 40 pmol), 24 hours", "procedure": "as §1, §2\n1.7 NO production. Nitric oxide production was evaluated using a DAF2-DA fluorescent probe (Molecular Probes, Leiden, The Netherlands). […] The fluorescence intensity was measured every hour for 6 hours. […] The numbers of adherent cells were measured by cristal violet assay."}, "[3]": {"test_system": "female Lewis rats", "assay": "In-vivo study, S.C. injection compared to CIA (collagen induced arthritis) model", "conditions": "for arthritis visual score, difference versus saline (Group 7): D17", "procedure": "An in-vivo study was performed to evaluate the potential immunizing effect of Coll2-1 peptide. This effect was evaluated in comparison with two validated models of rheumatoid arthritis: CIA (Collagen induced arthritis) and SCW (Streptococcal cell walls). The peptide has been injected once subcutaneous, at the base of the tail (S.C.—evaluation of systemic inflammation) or intra-articular (I.A.—evaluation of mono-articular inflammation) in female Lewis rats. Naïve controls (saline) were considered. Animals were euthanized 21 or 28 days after injection.\nAll animals (n=108 females; 96.0-129.7 gr) included in the study were identified by a unique chip. They were randomly distributed into 8 study groups (n=16/group except nave controls n=6/group, n=8/each time point) before induction (DO) based on their body weight (FIG. 1). • Injected controls (2 groups) • Group 1: bovin type II collagen (CIA)—S.C. (n=16) • Group 2: streptococcal cell wail (SCW)—I.A. (n=16) • Test groups (4 groups) • Group 3: Peptide dose 200 μg/100 μl—S.C. (n=16) • Group 4: Peptide dose 20 μg/100 μl—S.C. (n=16) • Group 5: Peptide dose 5 μg/50 μl—I.A. (n=16) • Group 6: Peptide dose 0.5 μg/50 μl—I.A. (n=16) • Naïve controls (2 groups) • Group 7: saline S.C. (n=6) • Group 8: saline I.A. (n=6)\nTwo injection ways were chosen to evaluate the potential effect of the peptide: intra-articular (I.A.) and subcutaneous (S.C.), two route classically used in the art.\nColl2-1 peptide was administered either I.A. under a 50 μL volume into the right knee or S.C. under a 100 μL volume at the base of the tail.\nSCW was administered I.A. into the right knee under a 50 μL volume. Bovine type II collagen (CIA) was administered under 100 μL volume at the base of the tail.\nTwo doses of the Coll2-1 peptide were tested in both conditions.\nIt was administered S.C. at 200 and 20 μg under 100 μL.\nColl2-1 peptide was administered once (DO).\nJoint was considered arthritic when significant signs of redness and/or swelling was noted. Each paw was evaluated with a visual score (0-3) • 0: normal, no joint inflammation • 1: large joint inflammation • 2: medium joint inflammation • 3: small joint (distal) inflammation\nA set of 4 values were recorded on each evaluation day. The 4 values were summed for analysis.\nRight and left knees diameter were measured using a digital caliper.\nAnimals were euthanized 21 or 28 days after injection (D0). They were anesthetized with a subcutaneous injection of a Ketamin/Medetomidine mix and further euthanized by exsanguination.\nBoth entire knees from each animal were processed for histological analysis, They were decalcified in a HCl/EDTA mix (DC2, Qpath, VWR Belgium) for the appropriate time before inclusion in paraffin. Three frontal sections (5 μm) of each compartment were done 200 μm apart in the weight bearing zone using a microtome. Slides were stained according to a standard Safranin-O/Fast green protocol.\nSlides were evaluated under a light microscope. Each slide was score for: • Infiltration of inflammatory cells in synovial tissue (0-3) • Inflammatory cells in the joint cavity (exudate) (0-3) • Cartilage proteoglycan depletion (0-3) • Loss of articular cartilage (0-3) • Bone erosion (0-3).\nInfiltration of inflammatory cells in synovial tissue and inflammatory cells in the joint cavity were considered together (sum of the scores) as inflammatory parameters for the analysis of the detailed criteria.\nStatistical analysis was performed with the appropriate test using GraphPad. • Visual score and evaluations (knee diameter measurements) were analyzed with a two way ANOVA followed, if positive, by Tukey's multiple comparison test. Graphs represented the mean of each group at each evaluated time point. • Histological scores were analyzed with a Kruskal Wallis for non-parametric values followed, if positive, by a Dunn's multiple comparison test. Graphs presented as box and whisker plots. Exact p values were provided and asterisks representation were also performed."}},
  "note": "“Also recorded” adds a separate entry of the source.",
  "data": [
    {"sequence": "HRGYPGLDG [Coll2-1]", "values": [
      {"measurement": "intracellular level of GSH", "setting": "[1]", "value": "significant decrease"},
      {"measurement": "production of NO (nitric oxide)", "setting": "[2]", "value": "decreased significantly; also recorded: decrease"},
      {"measurement": "inflammatory criteria (histology)", "setting": "[3]; Coll2-1 20 μg S.C. (Gr4), 028", "value": "Significant increase"},
      {"measurement": "cartilage degradation criteria", "setting": "[3]; Coll2-1 20 μg S.C. (Gr4), D28", "value": "Significant increase"},
      {"measurement": "loss of matrix proteoglycan", "setting": "[3]; Coll2-1 20 μg S.C. (Gr4), D28", "value": "Significant increase"},
      {"measurement": "subchondral bone modification score", "setting": "[3]; Coll2-1 20 μg S.C. (Gr4), D28", "value": "Significant increase"},
      {"measurement": "arthritis visual score, difference versus bovine type II collagen (Group 1)", "setting": "[3]; Coll2-1 20 μg S.C. (Group 4), D21", "value": "statistically different"},
      {"measurement": "global histological score, right and left knees together, versus saline (Group 7)", "setting": "[3]; Coll2-1 20 μg S.C. (Group 4), D28", "value": "significant increase"},
      {"measurement": "arthritis visual score, difference versus saline (Group 7)", "setting": "[3]; Coll2-1 20 μg/100 μl S.C. (Group 4)", "value": "statistically significant"},
      {"measurement": "inflammatory criteria (histology)", "setting": "[3]; Coll2-1 200 μg S.C. (Gr3), D21", "value": "Significant increase"},
      {"measurement": "subchondral bone modification score", "setting": "[3]; Coll2-1 200 μg S.C. (Gr3), D21", "value": "Significant increase"},
      {"measurement": "cartilage degradation criteria", "setting": "[3]; Coll2-1 200 μg S.C. (Gr3), D28", "value": "Significant increase"},
      {"measurement": "loss of matrix proteoglycan", "setting": "[3]; Coll2-1 200 μg S.C. (Gr3), D28", "value": "Significant increase"},
      {"measurement": "global histological score, right and left knees together, versus saline (Group 7)", "setting": "[3]; Coll2-1 200 μg S.C. (Group 3), D21", "value": "significant increase"},
      {"measurement": "arthritis visual score, difference versus saline (Group 7)", "setting": "[3]; Coll2-1 200 μg/100 μl S.C. (Group 3)", "value": "statistically significant"},
      {"measurement": "histological score (conclusion)", "setting": "[3]; collagen arthritis model, S.C. injection", "value": "increase"},
      {"measurement": "arthritis visual score", "setting": "[3]; single S.C. injection at the base of the tail, four limbs, D0 to D28", "value": "induced an increase"}
    ]}
  ]
}
